Experimental data taken from US20220249504A1, “LONGEVITY SIGNATURES AND THEIR APPLICATIONS” (The Brigham and Women's Hospital, Inc., priority 2019, published 2022).
“Also recorded” adds a separate entry of the source.

Experiments:
sex-associated genes = test: Feminizing effect of lifespan-extending interventions on hepatic gene expression (RNAseq, UM-HET3 mice); details: females
Source text: Liver samples corresponding to lifespan-extending interventions for RNA-seq and metabolome analysis were taken at 6 and 12 months of age from male and female mice treated by drugs or exposed to caloric restriction (CR) diet from 4 months of age along with control mice, which were untreated littermate mice matched by age and sex.
In all cases, interventions continued until the animals were sacrificed. […] RNA was extracted from liver tissues with PureLink RNA Mini Kit as described in the protocol and passed to sequencing.
For samples corresponding to lifespan-extending interventions, paired-end sequencing with 100 bp read length was performed on illumine HiSeq2000 platform. […] Quality filtering and adapter removal were performed using Trimmomatic version 0.32.
When performing analysis of the feminizing effect, gene expression differences were identified between control males and females from UM-HET3 strains for each age group. […] The statistical significance of correlation between sex-associated differences and response to certain intervention (“feminizing effect”) was calculated using Spearman correlation test and adjusted for multiple comparisons with Benjamini-Hochberg procedure. When calculating correlation between response to certain intervention in specific age group (6 or 12 months) and female-associated differences, the latter were calculated using gene expression data for control males and females from the other age group (12 or 6 months, respectively). […]
Differences in the feminizing effect of interventions in certain age groups between males and females was tested by Spearman correlation test, applied to the difference in log2FC of gender-associated genes in response to the specified conditions between males and females, and female-associated differences based on the other age group, with the following Benjamini-Hochberg adjustment. Manhattan distance between male and female gene expression profiles was calculated for individual samples in a pairwise manner using intersection of sex-specific gene sets across age groups. […]

[1] = tested on: mouse liver gene expression; test: Meta-analysis: Spearman correlation between hepatic gene expression profiles of interventions; format: in vivo; details: for Correlation with the main cluster of interventions (defined by CR and GH deficiency): median Spearman correlation matrix
Source text: To identify signatures associated with lifespan extension and the effect of certain interventions, we expanded our data with publicly available datasets from Gene Expression Omnibus (GEO) (Edgar, 2002) and ArrayExpress (Kolesnikov et al., 2015) databases. For the analysis of signatures associated with certain interventions (CR, rapamycin, GH deficiency), we integrated available gene expression data obtained from liver of mice from healthy genetic strains on standard diets subjected to CR, rapamycin and mutations associated with GH deficiency (Ames dwarf mice, GHRKO, Little mice, Snell dwarf mice). […] Finally, for the analysis of signatures associated with the lifespan extension effect, we integrated datasets on interventions with available and reliable survival data corresponding to the same experimental design (sex, strain, dose, age when the intervention started). In total, our hepatic meta-analysis covered 17 different interventions presented in 77 control-intervention datasets from 22 different sources (including ours) (FIG. 3D). The same approach was used to obtain microarray data corresponding to white adipose tissue (WAT) (9 control-intervention datasets from 5 sources) and skeletal muscle (13 control-intervention datasets from 9 sources).
To aggregate data across different platforms and studies, we developed the following method. First, data within each study was preprocessed independently and log-transformed to conform to normal distribution if needed. Then, filtering of low-covered genes was performed with soft threshold. Then, all identifiers were mapped to Entrez ID gene format, and genes not detected in our RNAseq data were filtered out. […] Afterwards, samples within every study were normalized by quantile normalization and scaling, followed by multiplication by the certain value to make it on the same scale as RNAseq data with more natural interpretation. Finally, mean and standard error of logFC of every gene for every response to intervention was calculated together with p-value (along with Benjamini-Hochberg adjusted p-value) estimated by edgeR (Robinson et al., 2009) and limma (Ritchie et al., 2015) for RNAseq and microarrays datasets, respectively. […] Importantly, one study may include several datasets if several interventions or settings have been analyzed there, and sometimes, different interventions or doses share the same control samples. This may be a source of batch effect, which we removed during subsequent steps of the analysis.
To calculate correlations between interventions in unbiased way, we applied the following approach. For every pair of interventions, including comparison of intervention with itself, we examined all pairs of datasets from different sources. For each such pair we selected 250 genes consisting of 125 genes with the most significant expression change (with the lowest p-values) from each dataset and calculated Spearman correlation coefficient within the pair. We reiterated this algorithm and, as a result, for every pair of interventions obtained distribution of Spearman correlation coefficients, calculated between datasets from different sources. For CR and rapamycin, we visualized these distributions using violinplot. One-sample Mann-Whitney test and Benjamini-Hochberg adjustment were used to check if means of correlation coefficients are different from 0 with statistical significance. We declared correlation coefficient to be significant if adjusted p-value was smaller than 0.1.
For correlation matrix we employed median values of Spearman correlation coefficients. By filtering out comparisons of datasets from the same source, we removed possible batch effect and ended up with independent and unbiased comparison of interventions. However, as some interventions were presented only within the same source, we couldn't estimate unbiased correlation for such cases. This missing data was visualized by grey boxes. […]

longevity signatures = test: GSEA-based association of publicly available hepatic gene expression datasets with longevity signatures; format: in vivo, mouse; details: for Association of hepatic gene expression changes with longevity signatures: public datasets (IL-6 injection GSE21060; SRT2104 in males GSE49000)
Source text: For interventions from publicly available sources (FIG. 7E (upper)), we downloaded them from GEO under the following accession numbers: GSE21060 (Ramadoss et al., 2010), GSE77082 (Alonso et al., 2017), GSE15891 (Baze et al., 2010), GSE11287 (Osburn et al., 2008), GSE49000 (Mercken et al., 2014), GSE10421 (Kautz et al., 2008) and GSE104234 (Rhoads et al., 2018). Data corresponding to Sirt6 overexpression (Kanfi et al., 2012) were downloaded via the link provided in the original paper. When running association test for the rhesus monkey data, we converted monkey genes to mouse orthologs using Ensembl BioMart platform. We preprocessed each dataset, performed quantile normalization and Entrez ID transformation and applied limma model for calculation of p-values, which were converted to log10(p-value) corrected by the sign of regulation as explained earlier.
To calculate statistical significance of obtained GSEA score, we performed permutation test where we randomly assigned genes to the lists of gene set maintaining their size. To get p-value of association between certain intervention and longevity signature, we calculated the frequency of real final GSEA score being bigger by absolute value than random final GSEA scores obtained as results of 3,000 permutations. To adjust for multiple comparisons, we performed Benjamini-Hochberg procedure. Resulted adjusted p-values were converted into significance scores as:
significance score=−log10(adj.pv)×sgn(GSEA score),
where adj. pv and GSEA score are BH adjusted p-value and final GSEA score, respectively. Heatmaps were colored based on values of significance scores. […]

C57BL/6 mice [2] = test: Glucose tolerance in old C57BL/6 mice on compound diet; format: in vivo, mouse; details: old C57BL/6 mice at the dose given in diet (AZD-8055: 23-month-old, treated 2.5 months)
Experimental: 23-month-old mice were treated for 2.5 months prior to analyses.

C57BL/6 mice [3] = test: Gait speed of old C57BL/6 mice on compound diet; format: in vivo, mouse; details: 31-month-old C57BL/6 male mice
Experimental: (§1) Briefly, 24-28 mice per intervention were used, with an approximately equal number of males and females. Mice were first assessed with regard to frailty index and gait speed, and then randomized to make sure the experimental and control groups had the same average frailty index and gait speed. Mice were then given a diet containing a compound of interest. […] Mice were monitored daily until they died. A separate cohort of old mice was assessed for frailty index and gait speed.
as §1, with “females. They” for “females. Mice”

C57BL/6 mice [4] = test: Frailty index of old C57BL/6 mice on compound diet; format: in vivo, mouse
Experimental: as §1
as §1, with “females. They” for “females. Mice”

C57BI/6 mice = test: Lifespan of old (2-year-old) C57BL/6 mice given a diet containing the compound; format: in vivo, mouse; details: C57BL/6 male mice, given late in life, ad libitum in diet (AZD-8055 20 mg/kg of food, LY294002 600 mg/kg, KU-0063794 10 mg/kg of diet)
Experimental: as §1
Interventions were predicted in a screen based on the gene expression longevity signatures that we developed. The predicted interventions were then verified for gene expression responses in human and mouse primary cell culture (hepatocytes) and in live mice (after mice were fed for 1 month with the diets containing these interventions). The interventions that passed these tests were further assessed for the effect on lifespan of 2-year-old C57BI/6 mice. Older mice (2-year-old) were chosen for this experiment in order to mimic the effect of giving interventions to human subjects in their second half of life.
as §1, with “females. They” for “females. Mice”

mice = details: cited from earlier work; for Effect on lifespan in the ITP mouse cohort: at the concentrations used (Miller et al., 2011; Strong et al., 2013, 2016)
[5] = datasets from different sources, 250 genes

Molecule: CO[C@H]1C[C@@H]2CC[C@@H](C)[C@@](O)(O2)C(=O)C(=O)N2CCCC[C@H]2C(=O)O[C@H]([C@H](C)C[C@@H]2CC[C@@H](O)[C@H](OC)C2)CC(=O)[C@H](C)/C=C(\C)[C@@H](O)[C@@H](OC)C(=O)[C@H](C)C[C@H](C)/C=C/C=C/C=C/1C [rapamycin]
- Feminizing effect (Spearman correlation with sex-associated gene expression differences) (sex-associated genes; 6-month-old): −0.14
- Feminizing effect (Spearman correlation with sex-associated gene expression differences) (sex-associated genes; 12-month-old): −0.49
- Correlation of the intervention with itself across datasets (median Spearman correlation coefficient) [1, 5]: 0.088
- Correlation with CR at the level of gene expression (median Spearman correlation coefficient) [1, 5]: −0.049

Molecule: interleukin-6: pro-inflammatory cytokine secreted by T cells and macrophages
- Association of hepatic gene expression changes with longevity signatures (longevity signatures): significant negative association with all longevity signatures

Molecule: O=c1cc(N2CCOCC2)oc2c(-c3ccccc3)cccc12 [LY294002, 2-Morpholin-4-yl-8-phenylchromen-4-one]
- Effect on glucose tolerance (C57BL/6 mice [2]): No effect; also recorded: did not have a significant effect
- Effect on gait speed (C57BL/6 mice [3]): improves
- Effect on frailty index (C57BL/6 mice [4]; 31-month-old C57BL/6 male mice): improves
- Effect on lifespan (C57BI/6 mice): extends lifespan

Molecule: Cc1nc(-c2cccnc2)sc1C(=O)Nc1ccccc1-c1cn2c(CN3CCOCC3)csc2n1 [SRT2104]
- Association with longevity signatures associated with the quantitative effect of lifespan extension (longevity signatures; males, public dataset): no consistent positive association
- Association of hepatic gene expression changes with longevity signatures (longevity signatures): significant positive associations of these models in males with CR and signatures shared by lifespan-extending interventions
- Increase in median and maximum lifespan (mice; male mice (Mercken et al., 2014b)): ~10%

Molecule: C[C@H]1O[C@H](O[C@H]2[C@H](O)[C@@H](O)[C@@H](O[C@H]3[C@H](O)[C@@H](O)C(O)O[C@@H]3CO)O[C@@H]2CO)[C@H](O)[C@@H](O)[C@@H]1N[C@H]1C=C(CO)[C@@H](O)[C@H](O)[C@H]1O (stereo partly drawn) [acarbose]
- Feminizing effect (Spearman correlation with sex-associated gene expression differences) (sex-associated genes; 12-month-old): 0.19

Molecule: Oc1ccc(C=Cc2cc(O)cc(O)c2)cc1 [resveratrol]
- Correlation with CR at the level of gene expression (median Spearman correlation coefficient) [1, 5]: statistically significant positive correlations
- Correlation with the main cluster of interventions (defined by CR and GH deficiency) [1]: week positive correlation
- Effect on lifespan in the ITP mouse cohort (mice): did not increase lifespan

Molecule: COc1ccc(-c2ccc3c(N4CCOC[C@@H]4C)nc(N4CCOC[C@@H]4C)nc3n2)cc1CO [AZD-8055, 5-[2,4-bis[(3S)-3-methyl-4-morpholinyl]pyrido[2,3-d]pyrimidin-7-yl]-2-methoxy-benzenemethanol]
- Effect on glucose tolerance (C57BL/6 mice [2]): does not lead to glucose intolerance; also recorded: did not compromise
- Effect on frailty index (C57BL/6 mice [4]; old C57BL/6 mice, males and females): no effect

Molecule: CN(C)C(=N)N=C(N)N [metformin]
- Correlation with CR at the level of gene expression (median Spearman correlation coefficient) [1, 5]: statistically significant positive correlations
- Correlation with the main cluster of interventions (defined by CR and GH deficiency) [1]: week positive correlation
- Effect on lifespan in the ITP mouse cohort (mice): did not increase lifespan
